Conditions: pH 5.5
Protocol: The fraction of the dose precipitating in the form of free base during dissolution is dependent on experimental factors such as stirring speed, which determines mixing kinetics of the highly supersaturated microenvironment solution into the bulk of the dissolution medium.
The dissolution studies were conducted using USP apparatus 2 in acetate buffer, pH 5.5 and 37° C.
The pH of the dissolution medium remained substantially constant at ˜5.5 until the end of the test.

concentration in the dissolution medium relative to saturation solubility at this pH: ~10 fold
SMILES: CN(C)Cc1nccn1-c1ccc(NC(=O)c2cc(C(F)(F)F)nn2-c2ccc3onc(N)c3c2)c(F)c1.Cl [Factor Xa inhibitor]
